# Test results published in the METLIN SMRT retention time set (Domingo-Almenara et al. 2019).
# Assay: gradient 5% acetonitrile 3 min, to 50% in 2 min, to 85% in 15 min, held 3 min, 100 µL/min
# Details: column: Zorbax Extend-C18 2.1 x 50 mm; eluents: water / acetonitrile, 0.1% formic acid
# Method in brief: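 Retention time was recorded from adduct peaks, which were picked computationally and each inspected manually. Pure standards ran in mixtures of ~100 molecules on HPLC coupled to a quadrupole time-of-flight mass spectrometer, in positive and negative ionization mode, through a Zorbax Extend-C18 column (2.1 × 50 mm, 1.8 μm) at 100 μL/min. Eluents were water and acetonitrile, each with 0.1% formic acid.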
row,SMILES,RP-LC retention time [s]
1,COc1ccc(N2CCN(C(=O)c3ccc4c(c3)CC(=O)N4C)CC2)cc1,801
2,CCN(C(C)=O)c1nc(-c2ccc(C3CCCCC3)cc2)cs1,848
3,CCOC(=O)CSc1nnc(NC(=O)COc2ccccc2)s1,798
4,Cc1cc(Br)ccc1-c1ccc(CNCCO)o1,662
5,COc1ccc(C(=O)NC2CCN(c3cc(-c4ccc(Cl)cc4)[nH]n3)C2)cc1 (stereo not given),776
6,CSc1cccc(NC(=O)C2CCCN(C(=O)c3cc(C)cc(C)c3)C2)c1 (stereo not given),1010
7,COc1ccc(OC)c(COCC(O)CN2CCc3cc(OC)c(OC)cc3C2)c1 (stereo not given),575
8,O=C(CCNc1cnc2cnccn12)NCc1cccc(Cl)c1,590
9,Cc1cc(Nc2cc(CN3CCOCC3)c3nc(C)c(Cc4ccc(Cl)cc4F)n3n2)n[nH]1,712
10,CCCC(=O)NCCn1c(=O)n(Cc2ccc(C)cc2)c2cccnc21,759
11,O=C(c1ccncc1)N1CCc2cc(-c3csc(C4CC4)n3)ccc21,848
12,CCn1c(=O)sc2cc(S(=O)(=O)N3CCC(C(=O)Nc4ccc(C)cc4C)CC3)ccc21,932
13,Cc1ccc(N2CCC(NC(=O)Nc3ccccc3C)C2=O)cc1C (stereo not given),875
14,Cc1ccc(N2C(=O)CN(S(=O)(=O)c3ccccc3)CC2(C)C(=O)NC2CCCCC2)cc1 (stereo not given),1000
15,O=C(NCc1ccco1)Nc1ccc2c(c1)N(C(=O)c1ccccc1)CC2,756
16,O=C(CSc1nc(-c2ccccc2)c(NC(=O)c2cccs2)s1)NC1CC1,782
17,c1ccc(-c2nc(-c3ccncc3)no2)c(OC2CCNC2)c1 (stereo not given),604
18,Cc1ccc(Nc2nc(C)cc(N3CCN(S(=O)(=O)c4ccc(F)c(F)c4)CC3)n2)cc1,808
19,CC(C)CN1C(=O)c2cccn2CC1CNC(=O)C1(c2ccccc2)CC1 (stereo not given),832
20,CC(C)C(C(=O)O)N1C(=O)c2cccc3cccc(c23)C1=O (stereo not given),795

row,SMILES,RP-LC retention time [s]
1,CCn1cnnc1C1CCCN(C(=O)CCc2c[nH]c3ccccc23)C1 (stereo not given),612
2,Cc1ccc(Cn2nc3ccc(S(=O)(=O)N4CCOCC4)cn3c2=O)cc1,977
3,COc1ccc(OC)c(CNC(=O)c2c(C)sc3ccn(CC(C)C)c(=O)c23)c1,975
4,CN(C)c1cc(C(=O)NC2CC2)c2cccc(Cl)c2n1,746
5,O=C(CC1=C2CCCCC2NC1=O)Nc1ccccc1 (stereo not given),681
6,CCOC(=O)N1CCN(c2c(N3CCN(c4ccccn4)CC3)c(=O)c2=O)CC1,562
7,Clc1ccc(C2Cn3nnc(-c4nc(-c5cccc(Cl)c5)no4)c3CO2)cc1 (stereo not given),1310
8,C/C=C1/C(=O)C[C@H]2[C@@H]3CCC4=CC(=O)CC[C@]4(C)[C@H]3CC[C@]12C,1100
9,COc1ccc(-c2ccnn2-c2ccc(SCc3ccccc3F)nn2)cc1,1310
10,CCOc1cc(C(=O)N2CCCC(C)(C(=O)NCc3ccc(C)cc3)C2)cc(OCC)c1OCC (stereo not given),1010
11,COCCC(=O)N1CCCN(C2=NS(=O)(=O)C(c3ccccc3)=C2C)CC1,669
12,CC(=O)N1c2ccc(S(=O)(=O)N3CCCCC3)cc2CC1C(=O)NCCC(C)C (stereo not given),822
13,CCOc1ccccc1CNC(=O)c1nnc(-c2ccc(S(=O)(=O)N3CCC(C)CC3)cc2)o1,1140
14,c1ccc2c(c1)Nc1ccncc1S2,634
15,COc1cccc(-n2c(N3CCC(C(=O)NC4CC4)CC3)nc3ccsc3c2=O)c1,682
16,CC1CCN(S(=O)(=O)c2cc(C(=O)N3CCN(c4ccccc4F)CC3)n(C)c2)CC1,1050
17,CCc1ccc(CNC(=O)c2cn(-c3ccc(-c4nc(C)no4)cn3)cn2)cc1,805
18,COc1ccc(S(=O)(=O)N2CCCC(Cn3cnc4cccnc43)C2)cc1OC (stereo not given),773
19,Cc1c(F)cccc1NC(=O)N1CCCC1c1nncn1-c1ccccc1 (stereo not given),744
20,Cc1cccc(-c2nc(C)c3c(n2)N(Cc2ccco2)C(=O)CC3)c1,1110

row,SMILES,RP-LC retention time [s]
1,CN1CCN(c2ccc(CNC(=O)C3CCc4sc(C(=O)N(C)C)cc4C3)cc2)CC1 (stereo not given),576
2,O=C(Cn1cccc1-c1nc(-c2ccc3c(c2)OCO3)no1)Nc1ccc2c(c1)OCCO2,963
3,COc1cccc(-c2n[nH]c3c2C(c2ccc(OC)cc2OC)NC3=O)c1 (stereo not given),753
4,COc1ccc(OC)c(CNC(=O)c2c(N3CCCC3=O)c3cc(F)ccc3n2C)c1,904
5,CCNC(=O)C1CCCN(c2nc3ncn(CC(=O)NCc4ccccc4Cl)c(=O)c3s2)C1 (stereo not given),670
6,O=C(NC1CCCC1)C1CCCN(c2ccc(=O)n(-c3cccc(Cl)c3)n2)C1 (stereo not given),845
7,CCOc1ccc(-c2nc(C3CC(=O)N(c4ccc(CC)cc4)C3)no2)cc1OCC (stereo not given),1180
8,COCCNC(=O)C1CCCN(c2nccc(C)n2)C1 (stereo not given),584
9,O=C(CC1CCN(C(=O)Nc2ccc(F)cc2)CC1)N1CCCCC1,740
10,COC(=O)Cc1[nH]c(=O)[nH]c1C(=O)OC,1100
11,O=C(c1ccc(Cl)s1)N1CCC(Oc2nc3c(F)cc(F)cc3s2)CC1,1140
12,CCn1ncc(N2CCCC(CC(=O)N3CCC4(CC3)OCCO4)C2)cc1=O (stereo not given),646
13,CCc1cc(C2CCCN2C(=O)NCc2ccccc2)on1 (stereo not given),766
14,O=C(c1ccn2c(-c3cccc(Cl)c3)nnc2c1)N1CCN(c2ccccn2)CC1,608
15,CCOc1cc(=O)n2c(c1C(=O)Nc1ccc(Br)cc1)CCCC2,798
16,CCCNC(=O)CCc1c(C)n(CC)c2nc(-c3ccccc3)nn2c1=O,697
17,O=S(=O)(c1ccc(-c2nnc(C3CCCC3)o2)o1)N1CCOCC1,834
18,CC1CCCN(c2ccc(-c3noc(CN4CCN(CC(=O)NC(C)C)CC4)n3)cn2)C1 (stereo not given),635

# Next, values leading:
row,RP-LC retention time [s],SMILES
1,848,O=C(CCc1ccc2cc[nH]c2c1)NCc1cc(F)cc(F)c1
2,551,Cn1c(C2CCN(C(=O)Cc3ccc(Cl)cc3)C2)nc2ccncc21 (stereo not given)
3,637,CCOC(=O)c1cccc(NC(=O)N2CCN(C)c3ncccc32)c1
4,651,Cc1cnc(-c2ccccc2)n1CCNS(=O)(=O)Cc1ccccc1F
5,837,CCOC(=O)c1c(C)[nH]c(CCC(=O)NCCc2c[nH]c3ccc(OC)cc23)c1C
6,732,Cc1cc(=O)n(CC(=O)Nc2ccc3c(c2)OCCO3)c(N2CCc3ccccc3C2)n1
7,789,Cc1onc(-c2ccc(F)cc2F)c1C(=O)NC(C)C
8,648,Cc1nn(CCC(=O)NCCCN2CCc3ccccc3C2)c(=O)c2nn(-c3ccccc3)c(C)c12
9,717,Cn1nc(C(=O)N2CCCC(C(=O)Nc3ccccc3)C2)c2c1CCN(C(=O)c1ccco1)C2 (stereo not given)
10,557,Cc1cc(N2CCN(C(=O)c3cccc(N(C)C)c3)CC2)nc2nnc(C)n12
11,750,CCCN1CCn2cc(S(=O)(=O)Nc3ccc(F)cc3)cc2C1=O
12,651,CSc1nc(N2CCCC2)c2cnn(CCNC(=O)CSc3nnnn3C)c2n1
13,710,Cn1c(N2CCCC(C(=O)NCc3ccc(Cl)cc3)C2)cc(=O)n(C)c1=O (stereo not given)
14,595,CN1CCC(NC(=O)c2n[nH]c3c2CN(C(=O)c2ccccc2Br)CC3)CC1
15,935,CCc1nn2c(CNS(=O)(=O)c3cccc(F)c3)c(-c3ccccc3)nc2s1
16,844,O=C(CN1C(=O)COc2ccc(C(=O)N3CCCCC3)cc21)NC1CCCCCCC1

row,RP-LC retention time [s],SMILES
1,678,O=C(NCC(O)Cc1ccccc1)c1c(F)cccc1F (stereo not given)
2,1240,Cc1ccc(Cl)cc1N1CCN(c2ccc3cc(S(=O)(=O)N4CCCC4)ccc3n2)CC1
3,712,Nc1cc(C2CCN(C(=O)c3ccc(F)c(Cl)c3)CC2)no1
4,703,COCCN1C(=O)c2cccn2CC1CNC(=O)Cn1nc(C(F)(F)F)cc1C (stereo not given)
5,1120,Cc1cc(C)nc(NS(=O)(=O)c2ccc(Nc3nc(-c4ccc(C(C)C)cc4)cs3)cc2)n1
6,515,COCCn1nc2n(c1=O)CCN(Cc1cccc(OC)n1)CC2
7,624,O=C(Nc1ccccc1)C1(CCO)CCN(Cc2ccccc2)C1 (stereo not given)
8,703,COc1cc(OC)c(NC(=O)N2CC(n3cnnc3-c3ccccc3)C2)cc1Cl
9,934,Cc1cccc(NC(=O)Cn2nc3c(Oc4cc(C)cc(C)c4)nccn3c2=O)c1
10,647,CSc1cccc(NC(=O)N2CCC(n3c(C)nc4cccnc43)CC2)c1
11,759,O=C(NCc1ccccc1F)c1ccc2c(c1)CN(Cc1cccs1)CCO2
12,688,COc1ccccc1CNC(=O)C1CCCN(c2nnc3cccc(C)n23)C1 (stereo not given)
13,848,CCC(=O)n1nc(C)c(S(=O)(=O)N2CCOCC2)c1C
14,687,CC(NC(=O)c1ccc2ncnc(N3CCCCC3)c2c1)c1ccc(F)cc1 (stereo not given)
15,728,CCOc1ccc2nc(NCc3ccco3)sc2c1
16,1160,Cc1ccccc1-c1noc(Cn2c(=O)n(C(C)C)c(=O)c3ccccc32)n1
